Data: paper PMC4820889 (Journal of Biomedical Research, 2015)

Biological target: ABCC1 (MRP1) (Homo sapiens, UniProt P33527)
Sequence (P33527 whole entry): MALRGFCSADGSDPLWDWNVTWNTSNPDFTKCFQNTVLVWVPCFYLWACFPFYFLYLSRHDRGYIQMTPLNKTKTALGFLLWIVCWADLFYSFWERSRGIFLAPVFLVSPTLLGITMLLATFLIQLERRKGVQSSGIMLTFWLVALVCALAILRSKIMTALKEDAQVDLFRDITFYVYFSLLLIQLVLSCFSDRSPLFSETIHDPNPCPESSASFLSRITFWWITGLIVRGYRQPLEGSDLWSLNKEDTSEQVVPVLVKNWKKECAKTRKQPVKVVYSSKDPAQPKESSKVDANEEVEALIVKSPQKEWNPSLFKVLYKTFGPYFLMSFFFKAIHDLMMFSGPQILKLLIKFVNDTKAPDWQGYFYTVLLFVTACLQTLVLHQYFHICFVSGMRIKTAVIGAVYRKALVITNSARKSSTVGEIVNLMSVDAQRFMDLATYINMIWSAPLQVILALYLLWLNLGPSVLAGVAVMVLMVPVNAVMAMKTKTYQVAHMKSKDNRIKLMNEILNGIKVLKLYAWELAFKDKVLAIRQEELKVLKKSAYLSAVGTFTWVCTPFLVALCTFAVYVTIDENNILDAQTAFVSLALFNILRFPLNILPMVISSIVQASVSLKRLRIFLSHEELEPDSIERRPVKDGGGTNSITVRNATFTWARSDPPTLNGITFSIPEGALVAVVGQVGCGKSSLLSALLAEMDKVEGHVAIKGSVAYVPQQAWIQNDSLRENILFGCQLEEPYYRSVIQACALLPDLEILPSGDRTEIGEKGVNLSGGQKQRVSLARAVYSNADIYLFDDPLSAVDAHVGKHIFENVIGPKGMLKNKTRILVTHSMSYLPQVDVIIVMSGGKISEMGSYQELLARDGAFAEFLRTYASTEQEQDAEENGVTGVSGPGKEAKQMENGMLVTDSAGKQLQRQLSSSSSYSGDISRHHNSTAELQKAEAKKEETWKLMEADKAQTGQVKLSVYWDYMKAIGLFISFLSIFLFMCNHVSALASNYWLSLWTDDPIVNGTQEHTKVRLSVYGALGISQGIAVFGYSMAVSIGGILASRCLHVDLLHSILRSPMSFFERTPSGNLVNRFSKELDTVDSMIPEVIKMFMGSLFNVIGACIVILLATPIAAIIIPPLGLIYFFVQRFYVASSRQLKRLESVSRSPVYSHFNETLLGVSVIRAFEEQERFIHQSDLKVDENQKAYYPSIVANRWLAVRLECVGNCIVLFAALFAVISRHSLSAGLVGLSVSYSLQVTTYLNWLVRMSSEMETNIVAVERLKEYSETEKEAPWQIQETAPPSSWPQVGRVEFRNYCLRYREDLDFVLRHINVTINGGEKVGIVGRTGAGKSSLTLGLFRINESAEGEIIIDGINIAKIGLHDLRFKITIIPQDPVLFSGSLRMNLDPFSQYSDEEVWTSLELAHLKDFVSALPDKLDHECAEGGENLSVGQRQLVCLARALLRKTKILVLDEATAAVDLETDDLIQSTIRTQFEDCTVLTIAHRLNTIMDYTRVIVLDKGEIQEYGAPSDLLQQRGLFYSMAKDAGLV

CSc1ccc(/C=C2/C(C)=C(CC(=O)O)c3cc(F)ccc32)cc1 [SS, sulindac sulfide]
IC50: 5.6 µM
